Columns and labels:
Dopamine receptor = experiment: Tested for in vitro binding affinity against cloned mammalian dopamine autoreceptor (DA) receptors expressed in CHO-K1 cells using [3H]U-86170 as radioligand; format: cell-based
D(3) dopamine receptor [1] = target: T1, D(3) dopamine receptor (Homo sapiens, UniProt P35462); experiment: Tested for in vitro binding affinity against cloned mammalian dopamine autoreceptor (DA) receptors expressed in CHO-K1 cells [3H]-spiperone as radioligand; format: cell-based
T1 sequence (P35462 whole entry): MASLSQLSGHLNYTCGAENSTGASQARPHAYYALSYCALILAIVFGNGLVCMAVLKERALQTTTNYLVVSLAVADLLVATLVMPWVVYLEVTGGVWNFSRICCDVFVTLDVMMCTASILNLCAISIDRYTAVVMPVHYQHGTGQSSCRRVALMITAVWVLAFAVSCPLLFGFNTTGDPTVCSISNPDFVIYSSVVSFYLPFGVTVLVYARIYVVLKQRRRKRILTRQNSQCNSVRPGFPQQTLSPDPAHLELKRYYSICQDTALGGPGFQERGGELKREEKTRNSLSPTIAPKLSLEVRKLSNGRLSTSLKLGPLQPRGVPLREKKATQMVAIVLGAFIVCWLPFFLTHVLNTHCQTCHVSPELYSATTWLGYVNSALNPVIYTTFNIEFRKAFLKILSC

D(2) dopamine receptor [2] = target: T2, D(2) dopamine receptor (Rattus norvegicus, UniProt P61169); experiment: Tested for affinity against striatal dopamine autoreceptor (DA) D2 receptors using [3H]spiperone as radioligand in rats.
T2 sequence (P61169 whole entry): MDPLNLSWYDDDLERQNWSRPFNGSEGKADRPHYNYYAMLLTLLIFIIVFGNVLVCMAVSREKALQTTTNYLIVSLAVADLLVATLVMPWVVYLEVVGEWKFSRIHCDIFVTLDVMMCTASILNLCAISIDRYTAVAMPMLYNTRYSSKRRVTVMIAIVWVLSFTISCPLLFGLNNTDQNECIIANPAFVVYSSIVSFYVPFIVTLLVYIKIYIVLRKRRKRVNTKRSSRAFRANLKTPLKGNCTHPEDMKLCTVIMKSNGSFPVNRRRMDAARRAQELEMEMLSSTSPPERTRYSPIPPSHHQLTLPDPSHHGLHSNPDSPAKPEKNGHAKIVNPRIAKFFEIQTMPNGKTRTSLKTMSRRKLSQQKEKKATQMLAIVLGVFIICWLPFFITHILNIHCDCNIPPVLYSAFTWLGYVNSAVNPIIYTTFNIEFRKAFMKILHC

Rattus norvegicus [3] = experiment: Compound is evaluated for DOPA accumulation in reserpine-pretreated habituated rats at 100 umol/kg of subcuteneous dose in rat striatum; format: functional
Rattus norvegicus [4] = experiment: Evaluated for biochemical levels of DOPAC in nonpretreated habituated rats for subcuteneous dose of 100 micro mol/kg in rat striatum; format: functional
Rattus norvegicus [5] = experiment: Evaluated for locomotor activity in nonpretreated habituated rats at 100 umol/kg of subcuteneous dose; format: functional; parameters: unit not given here
Rattus norvegicus [6] = experiment: Compound is evaluated for locomotor activity in reserpine-pretreated habituated rats at 100 micro mol/kg of subcuteneous dose; format: functional
D(2) dopamine receptor [7] = target: T3, D(2) dopamine receptor (Homo sapiens, UniProt P14416); experiment: biochemical
T3 sequence (P14416 whole entry): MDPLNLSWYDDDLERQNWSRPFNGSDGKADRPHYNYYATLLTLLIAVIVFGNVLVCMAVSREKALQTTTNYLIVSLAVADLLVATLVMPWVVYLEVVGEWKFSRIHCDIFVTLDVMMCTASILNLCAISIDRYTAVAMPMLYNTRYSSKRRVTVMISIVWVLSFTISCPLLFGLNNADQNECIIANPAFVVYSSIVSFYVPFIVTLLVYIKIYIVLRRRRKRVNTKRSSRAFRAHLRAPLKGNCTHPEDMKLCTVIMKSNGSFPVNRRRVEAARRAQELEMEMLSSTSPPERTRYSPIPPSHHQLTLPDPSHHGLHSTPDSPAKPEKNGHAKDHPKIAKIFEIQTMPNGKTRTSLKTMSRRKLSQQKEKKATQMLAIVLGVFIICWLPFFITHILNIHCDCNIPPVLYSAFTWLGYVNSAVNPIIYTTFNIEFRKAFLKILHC
Description: (§1) Affinity against recombinant dopamine receptor (DA) D2 expressed in CHO-K1 cells, using [3H]-spiperone as radioligand

Rattus norvegicus [8] = experiment: Compound is tested for its ability to displace (Di-Pr-5,6-ADTN) at […] of subcutaneous dose from rat striatal binding sites in vivo; format: functional
Rattus norvegicus [9] = organism: Rattus norvegicus; experiment: Compound is tested for concomitant ability to antagonize the locomotor activity induced by Di-Pr-5,6-ADTN; format: functional
Rattus norvegicus [10] = experiment: Evaluated biochemically in reserpine-pretreated habituated rats for (100 umol/kg) subcuteneous dose in rat striatum (DOPAacc), Value expressed as counts/30 min; format: functional
Rattus norvegicus [11] = experiment: Compound is evaluated for DOPAC accumulation in nonpretreated habituated rats after subcuteneous dose of 100 micro mol/kg in rat striatum; format: functional
Rattus norvegicus [12] = experiment: Evaluated biochemically in nonpretreated habituated rats for (100 uM/kg) subcuteneous dose, Value expressed as locomotor activity (LMA); format: functional
Rattus norvegicus [13] = experiment: Evaluated biochemically in reserpine-pretreated habituated rats for (100 umol/kg) subcuteneous dose, Value expressed as locomotor activity (LMA); format: functional
D(2) dopamine receptor [14] = target: T2, D(2) dopamine receptor
Description: Affinity against striatal dopamine D2 receptors using [3H]spiperone as radioligand in rats.

D(3) dopamine receptor [15] = target: T1, D(3) dopamine receptor; experiment: Tested for in vitro binding affinity against cloned mammalian dopamine D3 receptor, expressed in CHO-K1 cells, using [3H]spiperone as radioligand; format: cell-based
Rattus norvegicus [16] = experiment: Evaluated for DOPA accumulation (DOPAacc) level in nonhabituated rats after subcuteneous dose (100 uM/kg) in rat striatum; format: functional
Rattus norvegicus [17] = experiment: Effect of (60 min after administration of 200 (uM/kg) subcuteneous dose on DA release in brain dialysis model of rat striatum; Values expressed as percent of saline controls; format: functional
Rattus norvegicus [18] = organism: Rattus norvegicus; experiment: Compound was tested in vio for concomitant ability to antagonize the locomotor activity of rat induced by Di-Pr-5,6-ADTN, Value expressed as locomotor activity (LMA), % of control; format: functional; parameters: scale not given: the % may be the effect or the level left
Rattus norvegicus [19] = experiment: Tested in vivo for its ability to displace DA receptor agonist (Di-Pr-5,6-ADTN) from rat striatal binding sites at 0.25 uM/Kg sc. dose (after subtraction of cerebellum levels); format: functional
Rattus norvegicus [20] = experiment: Evaluated biochemically in nonhabituated rats for (100 umol/kg) subcuteneous dose, Value expressed as locomotor activity (LMA); format: functional
D(2) dopamine receptor [21] = target: T3, D(2) dopamine receptor; experiment: biochemical; remark: listed apart in the source
Description: In vitro binding affinity against cloned mammalian dopamine D2 autoreceptor, expressed in CHO-K1 cells, using [3H]U-86170 as radioligand

D(2) dopamine receptor [22] = target: T2, D(2) dopamine receptor; experiment: Tested for affinity against cloned mammalian dopamine autoreceptor (DA) D2 receptors expressed in CHO-K1 cells using [3H]spiperone as radioligand; format: cell-based
Rattus norvegicus [23] = experiment: Evaluated for DOPA accumulation in nonhabituated rats at 100 umol/kg of subcuteneous dose in rat striatum; format: functional
Rattus norvegicus [24] = experiment: Effect (60 min after administration of 200 (micro mol/kg) subcuteneous dose on DA release in brain dialysis model of rat; format: functional
Rattus norvegicus [25] = experiment: Compound is evaluated for DOPA accumulation in nonpretreated habituated rats for subcuteneous dose of 100 micro mol/kg in rat striatum; format: functional
Rattus norvegicus [26] = experiment: Compound is evaluated for DOPA accumulation in reserpine-pretreated habituated rats at 100 micro mol/kg of subcuteneous dose in rat striatum; format: functional
Rattus norvegicus [27] = experiment: Compound is evaluated biochemically in nonhabituated rats for (0.64 micro mol/kg) subcuteneous dose in rat striatum (DOPAacc); format: functional
Rattus norvegicus [28] = experiment: Compound is evaluated for DOPA accumulation in reserpine-pretreated habituated rats fat 3.2 micro mol/kg of subcuteneous dose in rat striatum; format: functional
Rattus norvegicus [29] = experiment: Effect (60 min after administration of 200 (1.6 micro mol/kg) subcuteneous dose on DA release in brain dialysis model of rat; format: functional
Rattus norvegicus [30] = experiment: Compound is evaluated for locomotor activity in reserpine-pretreated habituated rats at 3.2 umol/kg) of subcuteneous dose; format: functional
Rattus norvegicus [31] = experiment: Compound is evaluated for locomotor activity in nonhabituated rats at 3.2 umol/kg of subcuteneous dose; format: functional
Rattus norvegicus [32] = experiment: Compound is evaluated for locomotor activity in nonpretreated habituated rats in 25 umol/kg of subcuteneous dose; format: functional
Rattus norvegicus [33] = experiment: Evaluated for DOPAC level in nonpretreated habituated rats after subcuteneous dose of 100 micro mol/kg in rat striatum; format: functional
Rattus norvegicus [34] = experiment: Compound was tested in vivo for its ability to displace DA receptor agonist (Di-Pr-5,6-ADTN) from rat striatal binding sites at 0.25 uM/Kg sc. dose; format: functional
Rattus norvegicus [35] = organism: Rattus norvegicus; experiment: Compound was tested in vio for concomitant ability to antagonize the locomotor activity of rat induced by Di-Pr-5,6-ADTN; format: functional
Rattus norvegicus [36] = experiment: Evaluated for locomotor activity in nonpretreated habituated rats in 100 umol/kg of subcuteneous dose; format: functional; parameters: unit not given here
D(2) dopamine receptor [37] = target: T3, D(2) dopamine receptor; conditions: cho-k1
Description: as §1

CCCN1CCC[C@@H](c2cccc(SC)c2)C1
Ki (Dopamine receptor): 49 nM | Ki (D(3) dopamine receptor [1]): 139 nM | Ki (D(2) dopamine receptor [2]): 849 nM | Activity (Rattus norvegicus [3]): 92% | Activity (Rattus norvegicus [4]): 118% | LMA (Rattus norvegicus [5]): 313 | LMA (Rattus norvegicus [6]): 5 | Ki (D(2) dopamine receptor [7]): > 217 nM

CCCN(CCC)C1CCc2c(ccc(O)c2O)C1 (stereo not drawn)
Activity (Rattus norvegicus [8]): 0% | LMA (Rattus norvegicus [9]): 100%

CCCN1CCC[C@@H](c2cccc(N)c2)C1
Activity (Rattus norvegicus [10]): 91% | Activity (Rattus norvegicus [11]): 128% | Control (Rattus norvegicus [12]): 113% | Control (Rattus norvegicus [13]): 72% | Ki (D(2) dopamine receptor [14]): 2000 nM | Ki (D(2) dopamine receptor [7]): > 217 nM

CCCN1CCC[C@@H](c2cccc(OS(C)(=O)=O)c2)C1
Ki (D(3) dopamine receptor [15]): 978 nM | Activity (Rattus norvegicus [10]): 74% | Activity (Rattus norvegicus [16]): 249% | Activity (Rattus norvegicus [17]): 234% | Control (Rattus norvegicus [18]): 46% | Control (Rattus norvegicus [19]): 55% | Locomotor activity (% of control) (Rattus norvegicus [20]): 154% | Control (Rattus norvegicus [12]): 576% | Control (Rattus norvegicus [13]): 18% | Ki (D(2) dopamine receptor [14]): 4170 nM | Ki (D(2) dopamine receptor [7]): > 217 nM | Ki (D(2) dopamine receptor [21]): 192 nM

CN(C)CCCN1CCC[C@@H](c2cccc(C#N)c2)C1
Ki (D(2) dopamine receptor [2]): 2330 nM | Ki (D(2) dopamine receptor [22]): > 217 nM

CCN1CCC[C@@H](c2cccc(OS(=O)(=O)C(F)(F)F)c2)C1
Ki (D(2) dopamine receptor [2]): 1180 nM | Activity (Rattus norvegicus [23]): 286% | Activity (Rattus norvegicus [4]): 300% | Activity (Rattus norvegicus [24]): 120% | Ki (D(2) dopamine receptor [7]): > 217 nM

CCCc1cccc([C@@H]2CCCN(CCC)C2)c1
Ki (Dopamine receptor): 57 nM | Ki (D(3) dopamine receptor [1]): 86 nM | Ki (D(2) dopamine receptor [2]): 392 nM | Activity (Rattus norvegicus [25]): 190% | Activity (Rattus norvegicus [26]): 62% | LMA (Rattus norvegicus [26]): 734 | Activity (Rattus norvegicus [4]): 181% | Ki (D(2) dopamine receptor [7]): > 217 nM

CN1CCc2cccc3c2[C@H]1Cc1ccc(O)c(O)c1-3 [APOMORPHINE]
Activity (Rattus norvegicus [27]): 53% | Activity (Rattus norvegicus [4]): 65% | Activity (Rattus norvegicus [28]): 20% | Activity (Rattus norvegicus [29]): 37% | LMA (Rattus norvegicus [30]): 366 | LMA (Rattus norvegicus [31]): 277 | LMA (Rattus norvegicus [32]): 491

CCN1CCCC1CNC(=O)c1c(OC)ccc(Br)c1OC (single isomer, unassigned) [REMOXIPRIDE]
Activity (Rattus norvegicus [10]): 104% | Activity (Rattus norvegicus [16]): 411% | Activity (Rattus norvegicus [33]): 313% | Control (Rattus norvegicus [34]): 48% | LMA (Rattus norvegicus [35]): 91% | Locomotor activity (% of control) (Rattus norvegicus [20]): 60% | Control (Rattus norvegicus [13]): 5%

C=CCN1CC[C@@H]2c3cccc(OS(=O)(=O)C(F)(F)F)c3CC[C@@H]21 (stereo in doubt; 50)
Ki (Dopamine receptor): > 1900 nM | Ki (D(3) dopamine receptor [1]): > 500 nM | Ki (D(2) dopamine receptor [2]): > 172 nM | Activity (Rattus norvegicus [4]): 98% | LMA (Rattus norvegicus [36]): 148 | Ki (D(2) dopamine receptor [37]): > 217 nM
